According to patent US10039733B2, “Compositions, method, and kits for treating pulmonary conditions” (NuSirt Sciences, Inc., priority 2013, dated 2018):

Assays:
eotaxin = eotaxin secretion from MLEC (ELISA); type: cell-based, mouse; conditions: MLEC treated directly; theophylline 1 μM, leucine 0.5 mM, resveratrol 200 nM; FIG. 5
From the text: (§1) Interleukin 1-β, eotaxin, and interleukin 6 were all measured via enzyme-linked immunosorbent assay using specific antibodies for each cytokine (Abcam, Cambridge, Mass.) and a horseradish peroxidase-based second antibody detection system, with chromogenic detection at 450 nm using a microplate reader (Synergy HT, BioTek Instruments, Winooski, Vt.).

IL 6 [1] = assay: IL 6 secretion from MLEC (ELISA); type: cell-based, mouse; conditions: positive control, FIG. 8
Description: (§2) Cells were grown in Dulbecco's modified eagle's medium (DMEM) containing a growth factor supplement (Cell Biologics #M1 166) which included 5% fetal bovine serum (FBS), heparin, EGF, hydrocortisone, L-glutamine and antibiotics at 37° C. in 5% CO2.
as §1
(§3) Following treatment, western blots or ELISA assays were performed on the MLEC to determine the level of various indicators of airway diseases, such as NFκB protein expression, eotaxin secretion, IL1-β secretion, cellular IL6 content or secretion, adiponectin receptor 1 protein expression, and adiponectin receptor 2 protein expression.

IL1-β = IL1-β secretion from MLEC (ELISA); type: cell-based, mouse; conditions: MLEC treated directly; theophylline 1 μM, leucine 0.5 mM, resveratrol 200 nM; FIG. 4
From the text: as §1

IL 6 [2] = assay: cellular IL 6 content in MLEC (ELISA); type: cell-based, mouse; conditions: MLEC treated directly; theophylline 1 μM, leucine 0.5 mM, resveratrol 200 nM; FIG. 7
Description: as §2, §1, §3

[3] = tested on: OVA-induced asthmatic mice; assay: BALF cellularity by flow cytometry in OVA-induced asthma; type: in vivo, Balb/c mice; conditions: theophylline 10 mg/kg IP, baseline 12 g leucine diet
Description: The interactive effects of leucine and theophylline was evaluated in sixty young adult female Balb/c mice that were randomized to the following six groups (n=10/group):
Group 1 was an untreated control group that was administered a diet containing a baseline level of leucine at 12 g of leucine/day.
Group 2 was a positive control group that was administered dexamethasone via IP injection and a diet containing a baseline level of leucine at 12 g of leucine/day.
Group 3 was administered a diet containing a high level of leucine (diet containing leucine at 12 g/day for days 0-13 and 24 g/day beginning on day 14) and no theophylline or dexamethasone.
Group 4 was administered sub-therapeutic level of theophylline (1 mg/kg theophylline, 10% of therapeutic level) via IP injection and a high leucine diet (diet containing leucine at 12 g/day for days 0-13 and 24 g/day beginning on day 14). […]
Animals were sacrificed on day 28, subjected to bronchial alveolar lavage and the lavage fluid (BALF, 2 mL) and lungs collected. Airway inflammation was evaluated by assessing cellularity of BALF via flow cytometer; parameters used for cellular differentiation were sized granularity, autofluorescence and the expression of the following markers: CD45, Gr-1, CD11b, CCR3, B220 and CD3. […]

NFκB = NFκB protein expression by Western blot in directly treated MLEC; conditions: theophylline 1 μM, leucine 0.5 mM, resveratrol 200 nM, FIG. 1

TNFα
eotaxin secretion into the media (eotaxin): no significant effect
IL 6 secretion (IL 6 [1]): significant increase
IL1-β secretion (IL1-β): significant increase

Cn1c(=O)c2[nH]cnc2n(C)c1=O [theophylline]
cellular expression of IL 6 (IL 6 [2]): unaffected
eosinophil number in BALF ([3]; FIG. 15): modest significant decreases
T-cell number in BALF ([3]; trend not significant (0.05<p<0.1), FIG. 16): modestly reduced
NFκB protein expression relative to control (NFκB): no independent effect
IL1-β secretion (IL1-β): no significant independent effect
